Experimental data published in ChEMBL document CHEMBL5390223, “Strategies for the Discovery of Oxazolidinone Antibacterial Agents: Development and Future Perspectives” (J Med Chem, 2023).
In brackets after ≈: the same amount, converted by molar mass.

Assays:
[1] = tested on: Mycobacterium tuberculosis variant bovis; test: Antimycobacterial activity against Mycobacterium tuberculosis H37Rv assessed as reduction in bacterial growth by MABA assay; assay type: functional
[2] = tested on: Mycobacterium tuberculosis variant bovis; test: Antimycobacterial activity against Mycobacterium tuberculosis H37Rv assessed as reduction in bacterial cell growth; assay type: functional

SMILES	MIC [1] [µg/mL]	MIC [2] [µg/mL]
CC(=O)NC[C@H]1CN(c2ccc(N3CCOCC3)c(F)c2)C(=O)O1 [LINEZOLID]	0.5 (≈ 1.48 µM)	
CC(=O)NC[C@H]1CN(c2ccc(N3CCSCC3)c(F)c2)C(=O)O1 [SUTEZOLID]		0.125 (≈ 0.354 µM)
